Measurements published in US6416733B1, “Radiopharmaceuticals for imaging infection and inflammation” (Bristol-Myers Squibb Pharma Company, priority 1996, dated 2002).

Target: T1, PMN LTB4 receptor (Homo sapiens, UniProt Q15722)
T1 construct: endogenous in cells; host or cells: neutrophils (PMN) isolated from heparinized blood by ficoll gradient and dextran sedimentation
Assay: LTB4 Human Neutrophil (PMN) Binding Assay
Settings: read-out: Ki, affinity for LTB4 (receptor)
Description: LTB4 Human Neutrophil (PMN) Binding Assay
LTB4 for the PMN LTB4 receptor.

T1 sequence (Q15722 whole entry): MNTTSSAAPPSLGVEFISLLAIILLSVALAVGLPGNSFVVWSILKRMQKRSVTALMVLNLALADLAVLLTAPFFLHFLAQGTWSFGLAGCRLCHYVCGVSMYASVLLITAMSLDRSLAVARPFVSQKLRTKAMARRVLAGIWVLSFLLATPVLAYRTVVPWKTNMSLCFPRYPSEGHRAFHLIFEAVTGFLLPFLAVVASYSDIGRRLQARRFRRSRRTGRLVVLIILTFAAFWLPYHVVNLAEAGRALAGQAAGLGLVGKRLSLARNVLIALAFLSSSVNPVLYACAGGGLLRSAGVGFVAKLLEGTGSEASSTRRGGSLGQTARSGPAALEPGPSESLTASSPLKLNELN

Row | Ki [nM] | Structure (SMILES)
1 | 8 | CCc1cc(-c2ccc(F)cc2)c(O)cc1OCCCCC(C)(C)CNC(=O)c1ccc(N/N=C/c2ccccc2)nc1 [IIa]
2 | 52 | O=C(CCCCCOc1cc(-c2ccc3c(c2)OCO3)cc(-c2ccccc2)n1)NC(Cc1ccc(OCCCNC(=O)c2ccc(N/N=C/c3ccccc3S(=O)(=O)O)nc2)cc1)C(=O)O (stereo not drawn) [Reagent IV]
3 | 41 | O=C(CCCCCOc1cc(-c2ccc3c(c2)OCO3)cc(-c2ccccc2)n1)NC(Cc1ccc(O)cc1)C(=O)O (stereo not drawn) [Compound III]
